Laboratory results: patent US20090280511A1, “Methods for selecting candidate peptides presented on the surface of cancer cells following their binding to MHC class I molecules” (priority 2008, published 2009)
Residues, ends and D or L forms follow the SMILES beside them. *: point of attachment. Cbz = O=C(OCc1ccccc1)*

Experiments:
Assay type in all cases: cell-based, mouse
DC2.4 cells [1] = assay: H-2Kb/pOV8 presentation after introducing proteins from outside into the cytosol with Chariot
Text: The presentation of H-2Kb/pOV8 was examined when pOV8-YFP and YFP-pOV8 were introduced directly from the outside into the cytosol of DC2.4 cells.
Chariot was used as a reagent for forcibly making the cell membrane permeable to proteins in solution. It was again examined whether the presentation of pOV8 to H-2Kb was improved by fusion of pOV8 to the N-terminus of YFP as compared to fusion to the C-terminus. The cells were heated in the presence of any of YFP, pOV8-YFP, and YFP-pOV8, and the cell membrane permeabilizing agent Chariot. After washing the cells, a whole cell extract was prepared. After SDS-PAGE, Western blotting was performed using anti-YFP antibody (inset of FIG. 5). In addition, the expression of H-2Kb/pOV8 in these cells was measured using the 25D1.16 antibody.

DC2.4 cells [2] = assay: Effect of inhibitors on H-2Kb/pOV8 expression after acid wash
Description: The DC2.4 cells were washed with acid 12 hours after transfection as in FIG. 3. The inhibitors were added at 0 hours (time 0). After 6 hours, the cells were recovered and examined.
The effect of various inhibitors on H-2Kb/pOV8 expression was examined. […] DC2.4 cells were transfected with DNA and after two hours, excess DNA was removed and the cells were further incubated for 12 hours. The cells were washed with acid and the indicated inhibitor was added at the same time. After six hours, H-2Kb/pOV8 expression was measured using 25D1.16 antibody.
Other inhibitors were examined as in the experiment described in [8] above.
The same system in [8] above was used to examine the effect of non-natural amino acids such as canavanine or azetidine. It is known that proteins incorporating non-natural amino acids are easily degraded since they fail to fold properly.

DC2.4 cells [3] = assay: H-2Kb/pOV8 expression with or without IFNγ treatment, 25D1.16 antibody; details: DC2.4 cells expressing pOV8-YFP or YFP-pOV8
Text: First, DC2.4 cells expressing pOV8-YFP and YFP-pOV8 were respectively treated with IFNγ and analyzed for H-2Kb/pOV8 expression using the 25D1.16 antibody.
Cellular IFNγ treatment causes an increase in class I antigen expression, and the enormous immunological significance of this phenomenon has been elucidated. The principle of N-terminal epitope dominance should play a significant role in direct antigen presentation in the living body, since it brings about an expression difference similar to that which results from the presence or absence of IFNγ treatment.
In the table, the term “whole” means the sum of H-2Kb/pOV8 expression for all cells expressing YFP. The term “at 10^2 fluorescent units” means H-2Kb/pOV8 expression for cells expressing 10^2 fluorescent units of YFP.

Molecule | effect of inhibitor on H-2Kb/pOV8 expression (presentation) (DC2.4 cells [2]) | also measured
CC(C)C[C@@H](C=O)NC(=O)[C@H](CC(C)C)NC(=O)[C@H](CC(C)C)NC(=O)OCc1ccccc1 [MG132] (Cbz-Leu-Leu-Leu-aldehyde) | – | effect on antigen presentation of OVA administered with Chariot (DC2.4 cells [1]; OVA plus Chariot): reduced antigen presentation
COc1ccc(C[C@H]2NC[C@H](O)[C@H]2OC(C)=O)cc1 [anisomycin] | inhibited | –
C1CNC1 [azetidine] | no effect on antigen presentation | –
N=C(N)NOCC[C@H](N)C(=O)O [canavanine] | no variation | –
CCN(CC)CCCC(C)Nc1ccnc2cc(Cl)ccc12 (centres unmarked) [chloroquine] | not inhibited | –
IFNγ: cytokine used to treat cells; known to increase MHC class I antigen expression | – | effect of IFNγ treatment on H-2Kb/pOV8 expression (DC2.4 cells [3]): increased
OVA: full-length OVA antigen protein containing the pOV8 epitope | – | presentation of H-2Kb/pOV8 (DC2.4 cells [1]; protein administered to cells in the presence of Chariot): slight presentation of H-2Kb/pOV8 was observed
a-amanitin | Recovery in H-2Kb/pOV8 expression was not observed | –
